Assay [1] concerns secretion of gastric fluids. The experiment in a line: anti-secretory activity in pylorus-ligated rats (method of Shay et al.). Type of assay: in vivo, male albino Wistar rats. As for the experimental part: In standard biological test procedures, described generally by Shay et al., Gastroenterology 5, 43 (1945) and 26, 906 (1954) and by Selmici et al., Acta Physiol. Acad. Sci. Hung. […] Anti-secretory activity was determined in male albino Wistar rats weighing approximately 180 g. using the method described by Shay et al. which is described as follows: the rats were divided into medicated groups of at least five rats each and control groups of ten rats. The rats were medicated orally once daily for 2 days prior to stomach ligation and once again immediately following ligation. All drugs were administered as the free base, and control rats received only the vehicle of medication. The rats were housed individually in wire cages, food was withdrawn 48 hours prior to surgery, and water was withdrawn at the time of surgery. Laparotomy was performed under light ether anesthesia, the pyloric-duodenal junction was ligated, and the wound was closed with metal clips and sprayed with a protective surgical dressing. Five hours following surgery, the rats were sacrificed, the stomach was removed, and the gastric juice collected. The gastric fluid was centrifuged, the total volume, color, and volume of solids were recorded. The pH of the gastric fluid was then determined on a Beckman pH meter, and the "free" and "total" hydrochloric acid content of each gastric sample was determined by titrating an aliquot of the gastric fluid (diluted to approximately 10 ml. with distilled water) by titrating with 0.1N sodium hydroxide against Toepfers reagent and phenolphthalein, respectively. By determining the milliequivalents of hydrochloric acid per milliliter of gastric juice and knowing the total volume of gastric juice secreted by each rat, the total acid output can be calculated. Since pH is a function of "free" acid, the activity of the test compounds can be evaluated by comparison of the mean "free" acid of medicated rats with the mean "free" acid of the controls, and the activity can thus be expressed in terms of percent inhibition of free acid.
(§1) Data obtained on administration of the compounds of formula I in rats in the anti-secretory and anti-ulcer tests described above are given in the table below. Unless noted otherwise, data were obtained on oral administration. Results in the anti-secretory activity tests are given in terms of the pH of the gastric fluid in the test animals and the percent inhibition of free acid, while results in the anti-ulcer test are given either in terms of the percent inhibition of ulcers or as a ratio representing the number of animals with ulcers (as the numerator) to the total number of animals in the test group (as the denominator). All doses are expressed in mg./kg.

Assay [2] relates to reserpine-induced stomach ulceration. The experiment in a line: anti-ulcer activity, reserpine-induced ulcer test (method of Selmici et al.). In kind it is in vivo, male, albino, Sprague-Dawley rats. The following applies: oral; for inhibition in vivo at 100 mg/kg / Anti-Ulcer: ratio of number of animals with ulcers to total number of animals in the test group: 100 mg./kg. The method, then:
The anti-ulcer activity of the compounds was determined using the reserpine-induced anti-ulcer test method, described by Selmici et al., which is described briefly as follows: male, albino, Sprague-Dawley rats, weighing approximately 300 g., were divided into medicated and control groups of at least five rats each, and one positive control group of five rats medicated with a known drug at the active dose was run with each experiment. The rats were medicated forty-eight, twenty-four, and one hour before receiving an injection of reserpine. All test drugs were administered orally in terms of base, and the control rats received only the vehicle of medication. The rats were housed individually in wire cages, and food was withdrawn 24 hours prior to injection of reserpine, while water was allowed ad libitum. One hour following the third medication, 5.0 mg. of reserpine per kilogram of body weight in a concentration of 5 mg./ml. was injected intramuscularly in each rat. Eighteen hours after injection the rats were sacrificed, their stomachs removed, opened along the greater curvature, rinsed in warm saline, and pinned to a cork board for gross observation. The stomachs were examined for the number and size of ulcerations located in the glandular portion of the stomach with the aid of a one millimeter grid ocular with a 10x dissecting microscope. The degree of ulceration was arbitrarily graded according to the number and size of the ulcers as follows:
The points were added together and divided by the number of rats in each group to give an ulcer score, and the difference in the mean scores of the medicated and control group was expressed as percent inhibition of ulceration. Alternatively, the results can be expressed as a ratio of the total number of rats with any degree of ulceration (as the numerator) to the total number of rats in the test group (as the denominator).
as §1

The mark [3] stands for this setting: Rattus norvegicus, po, 5 h, oral, 100 mg./kg., read-out: % Inhibition of Free Acid.
The mark [4] stands for this setting: Rattus norvegicus, intraduodenal, 5 h, i.d., 100 mg./kg., read-out: % Inhibition of Free Acid.
[5] abbreviates: Rattus norvegicus, ip, 5 h, i.p., 100 mg./kg., read-out: % Inhibition of Free Acid.
Where [6] appears, read: Rattus norvegicus, sc, 5 h, s.c., 100 mg./kg., read-out: % Inhibition of Free Acid.

Structures are written as SMILES. Like-named read-outs stand apart in the source and are kept apart here.

As for `CCc1c(C)c2ccccc2n1CC(N)=O` [Example 1C, 2-Ethyl-3-methyl-1-indoleacetamide], the inhibition in vivo at 100 mg/kg in assay [1] (setting [3]) was 50%. For the same compound, the “pH of the gastric fluid” value in assay [1] (oral, 100 mg./kg.) came to 2.8. For the same compound, in assay [2] (Rattus norvegicus, 18 h), the inhibition in vivo at 25 mg/kg was 84% and the inhibition in vivo at 100 mg/kg is 96%.

Consider `CCc1c(C)n(CC(N)=O)c2ccccc12` [Example 3C, 2-Methyl-3-ethyl-1-indoleacetamide], for which the inhibition in vivo at 100 mg/kg was determined as 86% in assay [1] (setting [3]) and 97% in assay [2] (Rattus norvegicus, 18 h). In addition, in assay [1] (oral, 100 mg./kg.), the “pH of the gastric fluid” value is reported as 2.8.

Regarding `Cc1c(CO)c2ccccc2n1CCC(N)=O` [Example 8A, β-(2-methyl-3-hydroxymethyl-1-indole)propionamide], the inhibition in vivo at 100 mg/kg in assay [1] (setting [4]) is 100%; in assay [1] (setting [5]), 100%; in assay [1] (setting [3]) it was 69%; in assay [1] (setting [6]), 100%; in assay [2] (Rattus norvegicus, 18 h), 56%. Also, the “pH of the gastric fluid” value in assay [1] (i.d., 100 mg./kg.) was 5.6; in assay [1] (i.p., 100 mg./kg.), 7.0; in assay [1] (oral, 100 mg./kg.), 1.9; in assay [1] (s.c., 100 mg./kg.) it was 6.7.

As for `Cc1c(C)n(C(N)=O)c2ccc(Cl)cc12` [Example 5, 2,3-dimethyl-5-chloro-1-indolecarboxamide], the inhibition in vivo at 100 mg/kg in assay [1] (setting [3]) is 41%. The “pH of the gastric fluid” value in assay [1] (oral, 100 mg./kg.) was determined as 2.0. In assay [2] (Rattus norvegicus, 18 h), the inhibition in vivo at 25 mg/kg worked out at 0%.

In the case of `Cc1c(C=O)c2cc(F)ccc2n1CCC(N)=O` [Example 4G, β-(2-Methyl-3-formyl-5-fluoro-1-indole)propionamide], the inhibition in vivo at 100 mg/kg in assay [1] (Rattus norvegicus, 5 h, oral, 100 mg./kg., read-out: % Inhibition of Free Acid) amounted to 17%; in assay [1] (setting [6]), 36%. The “pH of the gastric fluid” value stood at 1.1 in assay [1] (oral, 100 mg./kg.) and 1.2 in assay [1] (s.c., 100 mg./kg.). Moreover, the “Anti-Ulcer: ratio of number of animals with ulcers to total number of animals in the test group” value in assay [2] is on record as 5/5.

In the case of `Cc1c(C)n(CC(=O)NO)c2ccccc12` [Example 3B, 2,3-Dimethyl-1-indoleacetohydroxamic acid], the inhibition in vivo at 100 mg/kg in assay [1] (setting [3]) was found to be 20%; in assay [2] (Rattus norvegicus, 18 h), 99%.

With `Cc1c(C)n(CC(N)=O)c2ccccc12` [Example 1A, 2,3-dimethyl-1-indoleacetamide], the inhibition in vivo at 25 mg/kg in assay [1] (Rattus norvegicus, po, 5 h, oral, 25 mg./kg., read-out: % Inhibition of Free Acid) was 69%; in assay [2] (Rattus norvegicus, 18 h), 95%. Also, the inhibition in vivo at 50 mg/kg in assay [1] (Rattus norvegicus, po, 5 h, oral, 50 mg./kg., read-out: % Inhibition of Free Acid) came to 65%; in assay [2] (Rattus norvegicus, 18 h), 98%. For the same compound, the inhibition in vivo at 100 mg/kg was determined as 100% in assay [1] (setting [3]) and 99% in assay [2] (Rattus norvegicus, 18 h). Further, in assay [1] (Rattus norvegicus, po, 5 h, oral, 200 mg./kg., read-out: % Inhibition of Free Acid), the inhibition in vivo at 200 mg/kg is 100%. Besides, the “pH of the gastric fluid” value in assay [1] (oral, 25 mg./kg.) was 2.6; in assay [1] (oral, 50 mg./kg.), 3.0; in assay [1] (oral, 100 mg./kg.), 6.0; in assay [1] (oral, 200 mg./kg.), 6.7. This compound also returned an inhibition in vivo at 0.8 mg/kg in assay [2] (Rattus norvegicus, 18 h, 0.8 mg./kg.) of 0%. For the same compound, in assay [2] (Rattus norvegicus, 18 h, 1.56 mg./kg.), the inhibition in vivo at 1.56 mg/kg came to 38%. The inhibition in vivo at 3.12 mg/kg in assay [2] (Rattus norvegicus, 18 h, 3.12 mg./kg.) worked out at 45%. In assay [2] (Rattus norvegicus, 18 h, 6.25 mg./kg.), the inhibition in vivo at 6.25 mg/kg was 75%. In assay [2] (Rattus norvegicus, 18 h, 12.5 mg./kg.), this compound gave an inhibition in vivo at 12.5 mg/kg of 81%.

For the compound `Cc1c(C)n(CCC(=O)N(C)C)c2ccccc12` [Example 2, β-(2,3-dimethyl-1-indole)-N,N-dimethylpropionamide], the inhibition in vivo at 100 mg/kg in assay [1] (setting [3]) came out at 93%. The “pH of the gastric fluid” value in assay [1] (oral, 100 mg./kg.) came to 4.4. The same compound yielded an inhibition in vivo at 25 mg/kg in assay [2] (Rattus norvegicus, 18 h) of 34%.

`Cc1c(C=O)n(CCC(N)=O)c2ccccc12` [Example 4K, β-(2-Formyl-3-methyl-1-indole)propionamide]: the inhibition in vivo at 100 mg/kg in assay [1] (setting [4]) is 37%; in assay [1] (setting [5]), 54%. In addition, the “pH of the gastric fluid” value in assay [1] (i.d., 100 mg./kg.) was determined as 1.54; in assay [1] (i.p., 100 mg./kg.) it was 2.30; in assay [1] (oral, 100 mg./kg.), 1.16. Moreover, the “Anti-Ulcer: ratio of number of animals with ulcers to total number of animals in the test group” value in assay [2] is on record as 3/5.

In the case of `Cc1c(C)n(CCC(=O)NO)c2ccccc12` [Example 3F, β-(2,3-Dimethyl-1-indole)propionohydroxamic acid], the inhibition in vivo at 100 mg/kg in assay [1] (setting [3]) is 34%. Besides, the “pH of the gastric fluid” value in assay [1] (oral, 100 mg./kg.) is 1.3. For the same compound, in assay [2] (Rattus norvegicus, 18 h), the inhibition in vivo at 50 mg/kg was 95%.

Values taken from US4069337A, “2-Substituted-indole-1-lower-alkanecarboxamides having anti-secretory or anti-ulcer activity” (Sterling Drug Inc., priority 1976, dated 1978).
